US6664231B1, “Anti-fungal peptides” (priority 1993, dated 2003)
Where two headings read alike, the source gives them in different places. Square brackets hold non-standard residues; d marks the D form. Ends that are not written are not given here. Peptide text beside a SMILES is read from it. Phe(4-NH2) = Nc1ccc(C[C@H](N)C(=O)O)cc1; d2Nal = N[C@H](Cc1ccc2ccccc2c1)C(=O)O; 12Ado = NCCCCCCCCCCCC(=O)O; Orn = NCCC[C@H](N)C(=O)O; Dab = NCC[C@H](N)C(=O)O; Aoc = NCCCCCCCC(=O)O

Legend:
[1] = test system: mouse RAW 264.7 cells incubated with E. coli O113 LPS; conditions: RAW 264.7 cells with E. coli O113 LPS; concentration reversing LPS growth inhibition by 50%
Procedure: (§1) An in vitro LPS neutralization screening assay for evaluation of Domain III derived peptides was developed (as described in co-owned and co-pending U.S. patent application Ser. No. 08/306,473) which provides both a measure of efficacy of each peptide (EC50) and of the toxicity/growth inhibition of each peptide (IC50).
(§2) The cells were counted and their concentration adjusted to 2×10^5 cells/mL and 100 μL aliquots were added to each well of a 96-well microtitre plate. […] This incubation was performed in the absence or presence of peptides in varying concentrations between 25 ng/mL and 50 μg/mL. […] Cell proliferation was quantitatively measured by the addition of 1 μCi/well [^3H]-thymidine 5 hours after the time of initiation of the assay. After the 15-hour incubation, labeled cells were harvested onto glass fiber filters with a cell harvester (Inotech Biosystems, INB-384, Sample Processing and Filter Counting System, Lansing, Mich.).

mouse RAW 264.7 cells = test system: mouse RAW 264.7 cells
Procedure: as §1, §2

[2] = RAW 264.7 cell growth inhibited by 50%

| Compound | In Vitro LPS Neutralization EC50 [1] | IC50 (toxicity/growth inhibition of peptide) (mouse RAW 264.7 cells) [µg/mL] | IC50 (toxicity/growth inhibition of peptide) (mouse RAW 264.7 cells; [2]) |
| --- | --- | --- | --- |
| CCCCCCCCCCCC(=O)N[C@H](CCCCN)C(=O)N[C@H](Cc1c[nH]c2ccccc12)C(=O)N[C@H](CC(C)C)C(=O)N[C@@H](C(=O)N[C@H](CCC(N)=O)C(=O)N[C@H](CC(C)C)C(=O)N[C@H](Cc1ccccc1)C(=O)N[C@H](Cc1c[nH]cn1)C(=O)N[C@H](CCCCN)C(=O)N[C@H](CCCCN)C(N)=O)[C@H](C)CC [XMP.415] | 1.61 ± 0.03 µg/mL | 6.80 ± 0.14 |  |
| KKWAIQLKK-NH2 (C-terminus assumed) [XMP.344P] | >25 µg/mL |  | NA (NA for IC50 means no evidence of decreased RAW cell growth at up to 50 μg/ml) |
| H-KVKWLIQLF-NH2 [XMP.295P] | 3.69 ± 0.12 µg/mL | >25 |  |
| H-RRWLIQLRR-NH2 [XMP.336P] | NA (NA for EC50 means no evidence neutralization of LPS at up to 50 μg/ml) |  | NA (NA for IC50 means no evidence of decreased RAW cell growth at up to 50 μg/ml) |
| CCCCCCCC(=O)N[C@H](CCCCN)C(=O)N[C@H](Cc1c[nH]c2ccccc12)C(=O)N[C@H](CC(C)C)C(=O)N[C@@H](C(=O)N[C@H](CCC(N)=O)C(=O)N[C@H](CC(C)C)C(=O)N[C@H](Cc1ccccc1)C(=O)N[C@H](Cc1c[nH]cn1)C(=O)N[C@H](CCCCN)C(=O)N[C@H](CCCCN)C(N)=O)[C@H](C)CC [XMP.414] | 1.91 ± 0.04 µg/mL |  | 10.96 ± 0.52 µg/mL |
| CC[C@H](C)[C@H](NC(=O)[C@H](CC(C)C)NC(=O)[C@H](Cc1c[nH]c2ccccc12)NC(=O)[C@H](CCN)NC(=O)[C@@H](N)CCN)C(=O)N[C@@H](CCC(N)=O)C(=O)N[C@@H](CC(C)C)C(=O)N[C@@H](CCN)C(=O)N[C@@H](CCN)C(N)=O [XMP 339P] (H-[Dab][Dab]WLIQL[Dab][Dab]-NH2) | NA (NA for EC50 means no evidence neutralization of LPS at up to 50 μg/ml) |  | NA (NA for IC50 means no evidence of decreased RAW cell growth at up to 50 μg/ml) |
| H-KPWLIQLFHKK-NH2 [XMP.390P] | 3.97 ± 0.21 µg/mL |  | NA (NA for IC50 means no evidence of decreased RAW cell growth at up to 50 μg/ml) |
| CC[C@@H](C)[C@@H](NC(=O)[C@@H](CCC(N)=O)NC(=O)[C@@H](CC(C)C)NC(=O)[C@H](N)CCCCN)C(=O)N[C@H](CC(C)C)C(=O)N[C@H](Cc1c[nH]c2ccccc12)C(=O)N[C@H](CCCCN)C(=O)N[C@H](CCCCN)C(N)=O [XMP.374P] | 13.97 ± 2.02 µg/mL |  | NA (NA for IC50 means no evidence of decreased RAW cell growth at up to 50 μg/ml) |
| CC[C@H](C)[C@H](NC(=O)[C@H](CC(C)C)NC(=O)[C@H](Cc1c[nH]c2ccccc12)NC(=O)[C@@H](N)CCCCN)C(=O)N[C@@H](CCCN)C(=O)N[C@@H](CC(C)C)C(=O)N[C@@H](Cc1ccccc1)C(=O)N[C@@H](Cc1c[nH]cn1)C(=O)N[C@@H](CCCCN)C(=O)N[C@@H](CCCCN)C(N)=O [XMP.369P] (H-KWLI[Orn]LFHKK-NH2) | 12.09 ± 0.43 µg/mL |  | NA (NA for IC50 means no evidence of decreased RAW cell growth at up to 50 μg/ml) |
| CC[C@H](C)[C@H](NC(=O)[C@H](CC(C)C)NC(=O)[C@H](Cc1c[nH]c2ccccc12)NC(=O)[C@H](Cc1ccc(N)cc1)NC(=O)[C@@H](N)Cc1ccc(N)cc1)C(=O)N[C@@H](CCC(N)=O)C(=O)N[C@@H](CC(C)C)C(=O)N[C@@H](Cc1ccc(N)cc1)C(=O)N[C@@H](Cc1ccc(N)cc1)C(N)=O [XMP.340P] (H-[Phe(4-NH2)][Phe(4-NH2)]WLIQL[Phe(4-NH2)][Phe(4-NH2)]-NH2) | >50 µg/mL |  | NA (NA for IC50 means no evidence of decreased RAW cell growth at up to 50 μg/ml) |
| H-KKQLLLLKK-NH2 [XMP.380P] | NA (NA for EC50 means no evidence neutralization of LPS at up to 50 μg/ml) |  | NA (NA for IC50 means no evidence of decreased RAW cell growth at up to 50 μg/ml) |
| CC[C@H](C)[C@H](NC(=O)[C@H](CC(C)C)NC(=O)[C@@H](N)Cc1c[nH]c2ccccc12)C(=O)N[C@@H](CCC(N)=O)C(=O)N[C@@H](CC(C)C)C(=O)N[C@@H](Cc1ccccc1)C(=O)N[C@@H](Cc1c[nH]cn1)C(=O)N[C@@H](CCCCN)C(N)=O [XMP.303P] | 11.79 ± 0.85 µg/mL |  | NA (NA for IC50 means no evidence of decreased RAW cell growth at up to 50 μg/ml) |
| CC[C@H](C)[C@H](NC(=O)[C@H](CC(C)C)NC(=O)[C@@H](Cc1c[nH]c2ccccc12)NC(=O)[C@@H](CCCCN)NC(C)=O)C(=O)N[C@@H](CCC(N)=O)C(=O)N[C@@H](CC(C)C)C(=O)N[C@@H](Cc1ccccc1)C(=O)N[C@@H](Cc1c[nH]cn1)C(=O)N[C@H](CCCCN)C(=O)N[C@H](CCCCN)C(N)=O [XMP.364P] | >25 µg/mL |  | NA (NA for IC50 means no evidence of decreased RAW cell growth at up to 50 μg/ml) |
| CC[C@@H](C)[C@@H](NC(=O)[C@@H](C)NC(=O)[C@@H](Cc1c[nH]c2ccccc12)NC(=O)[C@@H](CCCCN)NC(=O)[C@H](N)CCCCN)C(=O)N[C@H](CCC(N)=O)C(=O)N[C@H](CC(C)C)C(=O)N[C@H](CCCCN)C(=O)N[C@H](CCCCN)C(N)=O [XMP.375P] (H-[dK][dK][dW][dA][dI][dQ][dL][dK][dK]-NH2) | >50 µg/mL |  | NA (NA for IC50 means no evidence of decreased RAW cell growth at up to 50 μg/ml) |
| CC[C@@H](C)[C@@H](NC(=O)[C@@H](CC(C)C)NC(=O)[C@@H](Cc1c[nH]c2ccccc12)NC(=O)[C@@H](CCCCN)NC(=O)CCCCCCCN)C(=O)N[C@H](CCC(N)=O)C(=O)N[C@H](CC(C)C)C(=O)N[C@H](Cc1ccccc1)C(=O)N[C@H](Cc1c[nH]cn1)C(=O)N[C@H](CCCCN)C(=O)N[C@H](CCCCN)C(N)=O [XMP.416] (H-[Aoc][dK][dW][dL][dI][dQ][dL][dF][dH][dK][dK]-NH2) | 4.67 ± 0.27 µg/mL |  | 24.41 ± 0.78 µg/mL |
| CC[C@H](C)[C@H](NC(=O)[C@H](CC(C)C)NC(=O)[C@H](Cc1c[nH]c2ccccc12)NC(=O)[C@H](CCCCN)NC(C)=O)C(=O)N[C@@H](CCCN)C(=O)N[C@@H](CC(C)C)C(=O)N[C@@H](Cc1ccccc1)C(=O)N[C@@H](Cc1c[nH]cn1)C(=O)N[C@@H](CCCCN)C(=O)N[C@@H](CCCCN)C(N)=O [XMP.370P] (Ac-KWLI[Orn]LFHKK-NH2) | NA (NA for EC50 means no evidence neutralization of LPS at up to 50 μg/ml) | >25 |  |
| CC[C@@H](C)[C@@H](NC(=O)[C@@H](CCC(N)=O)NC(=O)[C@@H](CC(C)C)NC(=O)[C@@H](Cc1ccccc1)NC(=O)[C@@H](Cc1c[nH]cn1)NC(=O)[C@@H](CCCCN)NC(=O)[C@@H](CCCCN)NC(C)=O)C(=O)N[C@H](CC(C)C)C(=O)N[C@H](Cc1c[nH]c2ccccc12)C(=O)N[C@H](CCCCN)C(N)=O [XMP.368P] | 1.95 ± 0.11 µg/mL | >25 |  |
| CC[C@H](C)[C@H](NC(=O)[C@H](CC(C)C)NC(=O)[C@@H](Cc1ccc2ccccc2c1)NC(=O)[C@H](CCCCN)NC(=O)[C@@H](N)CCCCN)C(=O)N[C@@H](CC(C)C)C(=O)N[C@@H](CC(C)C)C(=O)N[C@@H](CCCCN)C(=O)N[C@@H](CCCCN)C(N)=O [XMP.347P] (H-KK[d2Nal]LILLKK-NH2) | 1.65 ± 0.09 µg/mL | >25 |  |
| H-KKWLIQLFHKK-NH2 [XMP.352P] | 2.34 ± 0.38 µg/mL |  | NA (NA for IC50 means no evidence of decreased RAW cell growth at up to 50 μg/ml) |
| H-SKWAIQLKK-NH2 [XMP.409P] | NA (NA for EC50 means no evidence neutralization of LPS at up to 50 μg/ml) |  | NA (NA for IC50 means no evidence of decreased RAW cell growth at up to 50 μg/ml) |
| GWLIQLFHKK-NH2 [XMP.388P] | 8.08 ± 1.52 µg/mL |  | NA (NA for IC50 means no evidence of decreased RAW cell growth at up to 50 μg/ml) |
| KWAIQLFHKK-NH2 [XMP.386P] | 9.75 ± 1.02 µg/mL |  | NA (NA for IC50 means no evidence of decreased RAW cell growth at up to 50 μg/ml) |
| KKWLIQLFKK-NH2 [XMP.351P] | 8.47 ± 0.71 µg/mL |  | NA (NA for IC50 means no evidence of decreased RAW cell growth at up to 50 μg/ml) |
| CC[C@@H](C)[C@@H](NC(=O)[C@@H](CC(C)C)NC(=O)[C@@H](Cc1c[nH]c2ccccc12)NC(=O)[C@@H](CCCCN)NC(=O)CCCCCCCCCCCN)C(=O)N[C@H](CCC(N)=O)C(=O)N[C@H](CC(C)C)C(=O)N[C@H](Cc1ccccc1)C(=O)N[C@H](Cc1c[nH]cn1)C(=O)N[C@H](CCCCN)C(=O)N[C@H](CCCCN)C(N)=O [XMP.417] (H-[12Ado][dK][dW][dL][dI][dQ][dL][dF][dH][dK][dK]-NH2; C-terminus assumed) | 3.88 ± 0.20 µg/mL | 11.26 ± 1.30 |  |
